Test results reported in patent US4980377A, “1-(aminophenyl)-2-aminopropanone derivatives” (Laboratoire L. Lafon, priority 1984, dated 1990).
“Also recorded” adds a separate entry of the source. Where a name gives a salt, the structure may show the parent alone.

Columns and labels:
[1] = Acute toxicity by intraperitoneal administration; format: in vivo, mouse; settings: mouse, in vivo, ip; male mice
Description: (§1) In the neuropsychopharmacological study which follows, a solution of CRL 41 153 in distilled water (pH 1.5) was administered intraperitoneally in a volume of 20 ml/kg to male mice and 5 ml/kg to male rats.

[2] = tested on: mice; test: Overall behavior and reactivities in mice; format: in vivo, mouse; settings: dose not stated
Description: as §1
(§2) Groups of three animals are observed before and then 0.25 hour, 0.50 hour, 1 hour, 2 hours, 3 hours and 24 hours after the administration of CRL 41 153.

[3] = tested on: rats; test: Overall behavior and reactivities in rats; format: in vivo, rat; settings: dose not stated
Description: as §1, §2

[4] = tested on: mice; test: Interaction with apomorphine in mice; format: in vivo, mouse; settings: i.p.
Description: Groups of 6 mice receive CRL 41 153 0.5 hour before the subcutaneous injection of 1 or 16 mg/kg of apomorphine.

[5] = tested on: rats; test: Interaction with apomorphine in rats; format: in vivo, rat; settings: i.p.
Description: CRL 41 153 is administered to groups of 6 rats 0.5 hour before the subcutaneous injection of 0.5 mg/kg of apomorphine.

[6] = tested on: rats; test: Interaction with amphetamine; format: in vivo, rat; settings: i.p.
Description: Amphetamine (2 mg/kg) is injected intraperitoneally into groups of 6 rats 30 minutes after the administration of CRL 41 153. […] 4 mg/kg and 16 mg/kg, CRL 41 153 potentiates the intensity and duration of the stereotypies induced by amphetamine.

[7] = tested on: mice; test: Interaction with reserpine; format: in vivo, mouse; settings: i.p.
Description: Four hours after the intraperitoneal injection of 2.5 mg/kg of reserpine, groups of 6 mice receive CRL 41 153.

[8] = tested on: mice; test: Interaction with oxotremorine; format: in vivo, mouse; settings: i.p.
Description: CRL 41 153 is administered to groups of 6 mice 0.5 hour before the intraperitoneal injection of 0.5 mg/kg of oxotremorine.

[9] = tested on: mice; test: Spontaneous motility; format: in vivo, mouse; settings: i.p.
Description: 0.5 hour after they have received CRL 41 153, the mice (6 per dose, 12 control animals) are placed in an actimeter, where their motility is recorded for 30 minutes.

[10] = tested on: mice; test: Motility reduced by habituation to the enclosure; format: in vivo, mouse; settings: i.p.
Description: After they have stayed In the actimeters for 18 hours, (he mice (6 per dose, 12 control animals) receive CRL 41 153. They are immediately returned to their respective enclosures and, half an hour later, their motility is recorded for 30 minutes.

[11] = tested on: mice; test: Motility reduced by hypoxic aggression; format: in vivo, mouse; settings: i.p.
Description: Half an hour after they have received CRL 41 153, the mice (10 per dose, 20 control animals) are subjected to acute hypobaric anoxia [pressure reduction of 600 mm Hg (i.e. about 8×10^4 Pa) in 90 seconds; release of vacuum in 45 seconds] and are then placed in an actimeter, where their motility is recorded for 10 minutes.

[12] = tested on: mice; test: Interaction with barbital; format: in vivo, mouse; settings: i.p., barbital 220 mg/kg
Description: Half an hour after the administration of CRL 41 153, groups of 10 mice receive an intraperitoneal injection of barbital (220 mg/kg).

[13] = tested on: mice; test: Behavioral despair; format: in vivo, mouse; settings: forcibly immersed mice, i.p.
Description: Half an hour after they have received CRL 41 153, groups of 6 mice are placed in a beaker filled with water to a height of 6 cm. The total period of immobility between the 2nd and 6th minutes following immersion is noted.

[14] = tested on: dogs; test: Cardiovascular study in anesthetized dogs; format: in vivo, dog
In short: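 Nembutal-anaesthetized dogs (~14 kg) given CRL 41 194 (n=2) or CRL 41 221 (n=4) intraduodenally at successive 0.1, 0.5, 1, 2.5, 5 and 10 mg/kg doses. Blood pressure, heart rate, femoral and vertebral flow, rectal temperature measured; skin colour observed, plus bile colour (CRL 41 194).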

[15] = tested on: humans; test: Clinical study: vasodilator; format: in vivo, human
Description: In the treatment of diseases associated with the blood circulation through the vessels.

[16] = tested on: gravid White New Zealand female rabbits; test: Teratogenicity in gravid White New Zealand rabbits; format: in vivo, rabbit; settings: day 5 to day 18 of gestation; for Affected foetuses, %: normal limit 1.5%
In short: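 Fetuses harvested by cesarean on gestation day 29 were scored for number and for any malformation (limb blockade, anury, tail or skull defects, exencephaly).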

[17] = pH of solutions in distilled water; format: physicochemical
Description: The neuropsychopharmacological study was undertaken according to the procedures described above for CRL 41 153, CRL 41 213 being adminstered intraperitoneally, in solution in distilled water, in a volume of 20 ml/kg to male mice and a volume of 5 ml/kg to male rats, and the pH of the injected solution varying with the concentration of CRL 41 213 according to the data given in Table II below.

[18] = tested on: CNS; test: Neuropsychopharmacological profile as a whole; format: in vivo, mice and rats
Description: as §1

[19] = anesthetized dogs, intraduodenal

CC(C(=O)c1ccc(N)cc1)N1CCCC1 (stereo not drawn) [CRL 41 222, 1-(4-aminophenyl)-2-pyrrolidinopropanone dihydrochloride]
LD50 [1]: 87 mg/kg | Overall behavior: observed effects (summary) [2]: excitation in mice and rats | Stereotype movements (summary) [2]: presence of stereotype movements | Overall behavior: observed effects (summary) [3]: excitation in mice and rats | Stereotype movements (summary) [3]: presence of stereotype movements | Effect on hypothermia induced by apomorphine [4]: antagonism of the hypothermia | Effect on stereotypies induced by apomorphine [5]: potentiation of the stereotypies | Effect on stereotypies induced by amphetamine [6]: potentiation of the stereotypies | Effect on hypothermia induced by reserpine [7]: antagonism of the hypothermia | Effect on ptosis induced by reserpine [7]: antagonism of the ptosis induced by reserpine | Effect on hypothermic action of oxotremorine [8]: antagonism of the hypothermia | Effect on trembling induced by oxotremorine [8]: antagonism of the trembling induced by oxotremorine | Spontaneous motor activity [9]: an increase in the motor activity | Motor activity of mice accustomed to their enclosure [10]: resumption in the motor activity of mice accustomed to their enclosure | Motor recovery of mice after hypobaric hypoxia [11]: improvement in the motor recovery | Duration of the sleep induced by barbital [12]: distinct antagonism of the sleep induced by barbital | Period of immobility due to despair [13]: a reduction in the period of immobility | Vasodilator (conclusion) [14]: vasodiating properties | Effect of propanolol or atenolol on the action of the product ([14]; anesthetized dogs): acts by stimulating the β-cardiac and vascular receptors | Effect on hypertension induced by norepinephrine ([14]; anesthetized dogs): moderately increases the hypertension induced by norepinephrine | Effects of isoprenaline (not further specified) ([14]; anesthetized dogs): without modifying the effects of isoprenaline | Rectal temperature ([14]; anesthetized dogs): The rectal temperature and skin temperature rise | Skin temperature ([14]; anesthetized dogs): The rectal temperature and skin temperature rise | Blood pressure [14, 19]: A hypotensive action appears at 20 mg/kg as a drop in the diastolic blood pressure | Femoral flow [14, 19]: substantial and regular increase in the femoral and vertebral flows | Heart rate [14, 19]: accompanied by tachycardia | Respiration [14, 19]: Respiratory stimulation is observed in all the animals | Vertebral flow [14, 19]: substantial and regular increase in the femoral and vertebral flows | Vasodilator in human clinical use [15]: good peripheral vasodilator at a daily dose of 2×10 mg | Affected foetuses, number ([16]; 5 mg/kg daily): 1 | Total foetuses (live) ([16]; 5 mg/kg daily): 85 | Affected foetuses, % ([16]; 5 mg/kg daily): 1.29% | Affected foetuses, number ([16]; 10 mg/kg daily): 0 | Total foetuses (live) ([16]; 10 mg/kg daily): 92 | Affected foetuses, % ([16]; 10 mg/kg daily): 0% | pH ([17]; 0.1 g/liter in distilled water): 5 | pH ([17]; 0.2 g/liter in distilled water): 4.5 | pH ([17]; 0.4 g/liter in distilled water): 4.0 | pH ([17]; 0.8 g/liter in distilled water): 3.5 | pH ([17]; 1.6 g/liter in distilled water): 3.0 | pH ([17]; 3.2 g/liter in distilled water): 2.5 | pH ([17]; 6.4 g/liter in distilled water): 2.0 | pH ([17]; 12.8 g/liter in distilled water): 1.5 | pH ([17]; ≤0.05 g/liter in distilled water): 5.5 | Antidepressant effects (overall) ([18]; conclusion of the tests): possessing antidepressant, stimulant and arousing properties | Stimulant effects (overall) ([18]; conclusion of the tests): possessing antidepressant, stimulant and arousing properties | α-adrenergic stimulant effects (overall) ([18]; conclusion of the tests): peripheral α-adrenergic stimulant effects | Peripheral α-adrenergic signs (mydriasis, salivation, lacrimation, exophthalmos) ([18]; species and dose not stated, dihydrochloride): mydriasis; also recorded: salivation and lacrimation
